The values below come from publication PMC5540273, “Progress towards a public chemogenomic set for protein kinases and a call for contributions” (PLoS ONE, 2017).

What all share (experiment): KINOMEscan competition binding
Assay [1] has as its target FGR (Homo sapiens, UniProt P09769). The conditions noted are these: read-out: %Inh FGR.
Assay [2] has as its target T1, EPHB2 (Homo sapiens, UniProt P29323).
T1 sequence (P29323 19-1055): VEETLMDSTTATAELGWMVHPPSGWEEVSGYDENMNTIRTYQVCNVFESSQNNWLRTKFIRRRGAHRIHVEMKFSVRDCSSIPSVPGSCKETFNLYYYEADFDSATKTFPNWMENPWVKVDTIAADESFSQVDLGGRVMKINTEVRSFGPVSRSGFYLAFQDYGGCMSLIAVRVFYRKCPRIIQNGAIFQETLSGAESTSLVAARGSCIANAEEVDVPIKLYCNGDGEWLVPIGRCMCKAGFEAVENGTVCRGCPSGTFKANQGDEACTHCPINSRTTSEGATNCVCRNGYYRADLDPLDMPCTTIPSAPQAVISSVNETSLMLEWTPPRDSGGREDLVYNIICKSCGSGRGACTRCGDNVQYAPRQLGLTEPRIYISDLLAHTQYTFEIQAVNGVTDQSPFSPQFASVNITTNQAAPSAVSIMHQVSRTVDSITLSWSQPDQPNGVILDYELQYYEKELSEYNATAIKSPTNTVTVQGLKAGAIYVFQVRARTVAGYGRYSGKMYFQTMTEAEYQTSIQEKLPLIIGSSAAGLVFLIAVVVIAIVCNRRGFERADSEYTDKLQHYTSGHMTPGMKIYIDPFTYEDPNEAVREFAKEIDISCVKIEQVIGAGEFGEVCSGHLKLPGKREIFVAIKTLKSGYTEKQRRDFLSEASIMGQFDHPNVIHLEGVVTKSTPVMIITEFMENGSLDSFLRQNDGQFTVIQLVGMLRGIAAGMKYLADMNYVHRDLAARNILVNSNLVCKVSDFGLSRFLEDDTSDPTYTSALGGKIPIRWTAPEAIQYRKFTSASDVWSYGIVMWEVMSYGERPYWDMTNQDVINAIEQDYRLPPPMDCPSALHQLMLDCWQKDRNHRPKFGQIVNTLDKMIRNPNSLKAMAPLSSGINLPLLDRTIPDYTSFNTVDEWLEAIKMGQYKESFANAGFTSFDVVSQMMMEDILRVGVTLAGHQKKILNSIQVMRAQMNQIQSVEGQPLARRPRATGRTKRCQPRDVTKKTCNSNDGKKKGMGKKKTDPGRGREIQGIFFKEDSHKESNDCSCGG
To be noted: read-out: %Inh EPHB2.

The target in assay [3] is CLK1 (Homo sapiens, UniProt P49759). The conditions noted are these: read-out: %Inh CLK1.
Assay [4] has as its target FYN (Homo sapiens, UniProt P06241). The conditions noted are these: read-out: %Inh FYN.
Assay [5] concerns the target KIT (Homo sapiens, UniProt P10721). The conditions noted are these: read-out: %Inh KIT.
The target in assay [6] is T2, DCAMKL3 (Homo sapiens, UniProt Q9C098).
T2 sequence (Q9C098 1-648): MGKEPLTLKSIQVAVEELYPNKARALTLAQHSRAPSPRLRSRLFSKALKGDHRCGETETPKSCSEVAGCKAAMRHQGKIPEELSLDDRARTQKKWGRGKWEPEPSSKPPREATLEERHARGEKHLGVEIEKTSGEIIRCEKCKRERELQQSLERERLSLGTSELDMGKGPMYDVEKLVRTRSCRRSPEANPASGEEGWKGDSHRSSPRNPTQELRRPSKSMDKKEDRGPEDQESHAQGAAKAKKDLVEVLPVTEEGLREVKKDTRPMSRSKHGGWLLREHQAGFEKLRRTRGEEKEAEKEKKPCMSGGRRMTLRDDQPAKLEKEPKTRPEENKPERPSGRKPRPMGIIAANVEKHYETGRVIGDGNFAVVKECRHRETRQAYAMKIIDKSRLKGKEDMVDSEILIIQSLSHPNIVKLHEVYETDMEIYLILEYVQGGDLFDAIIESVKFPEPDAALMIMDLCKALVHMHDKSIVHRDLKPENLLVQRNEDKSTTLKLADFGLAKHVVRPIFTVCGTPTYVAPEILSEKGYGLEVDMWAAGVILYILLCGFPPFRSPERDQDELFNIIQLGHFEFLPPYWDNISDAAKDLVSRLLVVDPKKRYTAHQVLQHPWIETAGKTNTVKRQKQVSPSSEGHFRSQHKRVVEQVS
To be noted: read-out: %Inh DCAMKL3.

The target of assay [7] is T3, EPHA3 (Homo sapiens, UniProt P29320).
T3 sequence (P29320 21-983): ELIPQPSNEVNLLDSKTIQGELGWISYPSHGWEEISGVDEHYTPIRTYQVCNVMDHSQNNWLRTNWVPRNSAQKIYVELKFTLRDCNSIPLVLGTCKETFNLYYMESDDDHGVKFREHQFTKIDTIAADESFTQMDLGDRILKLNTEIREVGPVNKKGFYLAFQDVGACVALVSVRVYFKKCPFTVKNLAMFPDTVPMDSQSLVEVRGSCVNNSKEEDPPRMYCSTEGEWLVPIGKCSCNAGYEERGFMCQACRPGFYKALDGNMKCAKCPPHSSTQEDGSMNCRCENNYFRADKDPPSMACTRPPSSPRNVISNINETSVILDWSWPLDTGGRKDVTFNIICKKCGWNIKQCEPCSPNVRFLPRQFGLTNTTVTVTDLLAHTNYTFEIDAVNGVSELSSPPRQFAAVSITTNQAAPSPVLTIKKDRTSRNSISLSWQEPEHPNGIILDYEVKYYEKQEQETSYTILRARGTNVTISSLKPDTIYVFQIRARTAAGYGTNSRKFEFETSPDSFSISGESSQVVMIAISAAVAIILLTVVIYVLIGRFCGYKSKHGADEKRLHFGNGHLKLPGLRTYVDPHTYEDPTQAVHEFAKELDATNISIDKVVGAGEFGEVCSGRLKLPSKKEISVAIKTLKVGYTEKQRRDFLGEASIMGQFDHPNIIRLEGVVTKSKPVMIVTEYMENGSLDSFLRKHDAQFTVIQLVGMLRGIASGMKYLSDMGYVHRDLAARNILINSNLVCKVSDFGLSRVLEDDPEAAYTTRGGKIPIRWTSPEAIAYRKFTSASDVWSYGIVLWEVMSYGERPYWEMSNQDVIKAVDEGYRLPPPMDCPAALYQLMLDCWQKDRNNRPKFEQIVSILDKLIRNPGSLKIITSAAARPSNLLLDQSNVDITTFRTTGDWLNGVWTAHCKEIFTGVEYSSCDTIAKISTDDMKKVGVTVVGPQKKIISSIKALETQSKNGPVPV
To be noted: read-out: %Inh EPHA3.

Sequence of FGR (P09769 whole entry): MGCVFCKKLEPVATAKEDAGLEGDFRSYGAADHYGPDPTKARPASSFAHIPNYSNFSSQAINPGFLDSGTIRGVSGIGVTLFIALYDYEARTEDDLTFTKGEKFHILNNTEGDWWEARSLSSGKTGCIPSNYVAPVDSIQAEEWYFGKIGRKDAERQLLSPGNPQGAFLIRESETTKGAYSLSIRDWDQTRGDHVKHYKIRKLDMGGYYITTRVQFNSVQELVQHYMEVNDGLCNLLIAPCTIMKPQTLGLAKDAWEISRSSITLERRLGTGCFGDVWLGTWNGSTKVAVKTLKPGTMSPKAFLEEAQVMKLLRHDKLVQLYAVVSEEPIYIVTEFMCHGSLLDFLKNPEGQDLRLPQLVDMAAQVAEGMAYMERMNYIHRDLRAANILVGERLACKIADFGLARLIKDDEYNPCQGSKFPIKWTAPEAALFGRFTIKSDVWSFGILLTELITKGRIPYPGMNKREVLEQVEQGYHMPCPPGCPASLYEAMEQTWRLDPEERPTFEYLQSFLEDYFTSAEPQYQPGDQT
Sequence of KIT (P10721 26-976): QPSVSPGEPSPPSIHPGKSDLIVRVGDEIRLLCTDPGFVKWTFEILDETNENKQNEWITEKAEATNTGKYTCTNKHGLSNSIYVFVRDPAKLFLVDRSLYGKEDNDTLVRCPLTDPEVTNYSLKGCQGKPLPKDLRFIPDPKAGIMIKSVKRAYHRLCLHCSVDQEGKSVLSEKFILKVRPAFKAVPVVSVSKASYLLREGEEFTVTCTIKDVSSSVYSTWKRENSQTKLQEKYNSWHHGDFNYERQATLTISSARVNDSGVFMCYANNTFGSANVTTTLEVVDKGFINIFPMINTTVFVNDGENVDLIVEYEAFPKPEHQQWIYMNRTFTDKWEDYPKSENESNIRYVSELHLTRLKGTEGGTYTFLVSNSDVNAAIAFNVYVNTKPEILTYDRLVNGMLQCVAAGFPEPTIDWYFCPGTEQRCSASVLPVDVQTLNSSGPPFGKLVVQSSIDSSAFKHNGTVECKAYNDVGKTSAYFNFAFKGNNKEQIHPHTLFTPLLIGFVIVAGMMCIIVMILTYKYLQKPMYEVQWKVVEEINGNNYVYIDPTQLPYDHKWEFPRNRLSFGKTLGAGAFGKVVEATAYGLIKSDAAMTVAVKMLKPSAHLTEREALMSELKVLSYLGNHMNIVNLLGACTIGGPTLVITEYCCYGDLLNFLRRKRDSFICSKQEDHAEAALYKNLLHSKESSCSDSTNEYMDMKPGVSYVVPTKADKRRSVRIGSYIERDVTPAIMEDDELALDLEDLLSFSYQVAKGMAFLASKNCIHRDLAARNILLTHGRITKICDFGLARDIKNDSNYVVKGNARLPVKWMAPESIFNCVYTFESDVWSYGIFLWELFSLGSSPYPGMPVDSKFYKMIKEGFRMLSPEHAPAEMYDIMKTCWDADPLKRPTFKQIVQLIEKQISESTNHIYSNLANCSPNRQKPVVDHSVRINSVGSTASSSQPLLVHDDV
Sequence of CLK1 (P49759 whole entry): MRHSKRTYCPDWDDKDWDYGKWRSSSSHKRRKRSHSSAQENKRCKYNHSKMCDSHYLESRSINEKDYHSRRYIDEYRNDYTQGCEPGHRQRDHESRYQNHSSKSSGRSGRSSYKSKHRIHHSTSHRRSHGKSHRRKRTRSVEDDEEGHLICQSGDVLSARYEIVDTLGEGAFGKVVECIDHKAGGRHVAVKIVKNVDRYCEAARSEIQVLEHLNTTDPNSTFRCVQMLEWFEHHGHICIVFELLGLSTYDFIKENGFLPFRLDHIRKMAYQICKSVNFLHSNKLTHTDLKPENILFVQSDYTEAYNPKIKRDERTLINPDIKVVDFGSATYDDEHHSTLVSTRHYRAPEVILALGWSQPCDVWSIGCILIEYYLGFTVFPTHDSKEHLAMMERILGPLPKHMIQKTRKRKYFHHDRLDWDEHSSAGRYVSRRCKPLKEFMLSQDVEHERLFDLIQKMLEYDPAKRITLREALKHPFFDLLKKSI
Sequence of FYN (P06241 whole entry): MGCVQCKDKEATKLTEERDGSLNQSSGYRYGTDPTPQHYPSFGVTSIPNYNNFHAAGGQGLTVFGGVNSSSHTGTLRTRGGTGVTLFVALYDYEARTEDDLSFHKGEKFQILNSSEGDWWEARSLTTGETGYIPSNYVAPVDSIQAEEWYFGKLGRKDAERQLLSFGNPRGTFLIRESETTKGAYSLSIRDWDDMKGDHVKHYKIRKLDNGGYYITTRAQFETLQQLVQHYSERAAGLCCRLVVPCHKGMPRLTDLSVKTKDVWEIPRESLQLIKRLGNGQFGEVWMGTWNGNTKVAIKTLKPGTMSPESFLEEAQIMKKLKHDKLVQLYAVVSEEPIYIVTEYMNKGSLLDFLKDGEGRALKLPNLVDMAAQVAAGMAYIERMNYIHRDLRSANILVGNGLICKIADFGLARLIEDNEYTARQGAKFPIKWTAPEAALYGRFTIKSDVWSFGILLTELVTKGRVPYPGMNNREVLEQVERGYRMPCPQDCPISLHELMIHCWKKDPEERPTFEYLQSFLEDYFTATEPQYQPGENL

For the compound `COc1cccc(OC)c1C(=O)Nc1cccc(-c2nn3ccccc3c2-c2ccnc(Nc3cccc(F)c3)n2)c1` [UNC10225310A], the inhibition at 1 µM came out at 23% in assay [1]; 0% in assay [2]; 21% in assay [3]; 22% in assay [4]; 90.9% in assay [5]; 16% in assay [6]. Further, the inhibition at 1 µM in assay [7] was 0%.

Consider `O=c1cc(N2CCOCC2)nc2n(Cc3cccc(Cl)c3Cl)c(C3CC3)nn12` [UNC10225469A], for which the inhibition at 1 µM turned out to be 9% in assay [1]; 0% in assay [2]; 27% in assay [3]; 6% in assay [4]; 0% in assay [5]; 17% in assay [6]. Also, the inhibition at 1 µM in assay [7] came to 0%.

As for `Cn1cc(-c2cnc(N)c3c(-c4ccc5c(c4)CCN5C(=O)Cc4ccccc4)csc23)cn1` [UNC10225012A], the inhibition at 1 µM in assay [1] was 75%; in assay [2], 2%; in assay [3], 15%; in assay [4] it was 25%; in assay [5], 100%; in assay [6] it was 5%. Moreover, in assay [7], the inhibition at 1 µM is 0%.

Consider `CS(=O)(=O)Cc1ccc(Nc2nccc(-c3c(-c4cccc(NC(=O)C5CCCCC5)c4)nn4ncccc34)n2)cc1` [UNC10225159A], for which the inhibition at 1 µM in assay [1] was determined as 27%; in assay [2], 3%; in assay [3], 10%; in assay [4], 1%; in assay [5] it was 88%; in assay [6] it was 0%. The inhibition at 1 µM in assay [7] came out at 16%.

As to `Cc1ccc(NC(=O)Nc2cccc(C(F)(F)F)c2)cc1` [UNC10225187A], the inhibition at 1 µM in assay [1] was 0%; in assay [2], 3%; in assay [3], 3%; in assay [4], 0%; in assay [5] it was 91.4%; in assay [6] it was 13%. Moreover, the inhibition at 1 µM in assay [7] is 0%.
